Laboratory results as given in US7452887B2, “Quinoline- and isoquinoline-based compounds exhibiting ATP-utilizing enzyme inhibitory activity, and compositions, and uses thereof” (Amphora Discovery Corporation, priority 2004, dated 2008).

Key:
Assay in all cases: HTS ATP-utilizing enzyme assay, off-chip mobility-shift (Caliper HTS 250)
Settings in all cases: test compound 10 μM, kinase listed = active (greater than six-sigma from the mean activity of inactive compounds)
MAPKAPK2 = MAPKAPK2 (Homo sapiens, UniProt P49137); type: biochemical
Procedure, shortened: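 Phosphorylation of a peptide substrate was quantified by Caliper mobility-shift separation of substrate and product after 2.5 h at 20-22 °C, with compounds tested at 10 μM. Inhibition was normalized to EDTA-quenched (100%) and DMSO (0%) controls; six-sigma thresholds flagged actives.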

PRAK = biological target: T1, PRAK (Homo sapiens, UniProt Q8IW41); type: biochemical
T1 sequence (Q8IW41 1-473): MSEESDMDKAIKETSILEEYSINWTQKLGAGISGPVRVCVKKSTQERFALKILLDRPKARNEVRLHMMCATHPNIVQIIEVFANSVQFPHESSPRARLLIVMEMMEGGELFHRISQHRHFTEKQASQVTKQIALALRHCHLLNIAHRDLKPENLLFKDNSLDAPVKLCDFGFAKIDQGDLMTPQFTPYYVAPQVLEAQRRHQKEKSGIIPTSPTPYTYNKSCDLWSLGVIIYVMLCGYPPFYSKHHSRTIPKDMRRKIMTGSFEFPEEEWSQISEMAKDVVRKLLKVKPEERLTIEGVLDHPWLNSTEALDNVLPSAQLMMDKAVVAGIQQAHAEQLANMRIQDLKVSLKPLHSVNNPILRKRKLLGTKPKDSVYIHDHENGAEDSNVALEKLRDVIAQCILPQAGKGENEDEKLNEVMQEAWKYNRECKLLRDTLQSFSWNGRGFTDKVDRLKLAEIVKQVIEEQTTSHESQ
Procedure, shortened: (§1)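 Compounds were tested once at 10 μM against kinase with peptide substrate. After 2.5 hrs at 20° C. to 22° C., reactions were terminated with EDTA, and conversion was read as substrate/product ratio by mobility shift.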

CK2 = type: biochemical, human
Text: The following procedures describe the reagent and plate preparation for a HTS of an ATP-utilizing enzyme, such as a protein kinase, run in an off-chip mobility-shift assay format. The following provides an HTS protocol for running a protein kinase HTS screen on a Caliper HTS 250 microfluidics system. The following parameters are dependent on the protein kinase used and can be determined by one skilled in the art as part of a typical assay development process. For example, the peptide substrate used can be identified from the current literature, by screening a peptide library of potential protein kinase substrates, or by other applicable means accepted in the field.
The following table provides typical screen assay parameters appropriate for a Caliper HTS 250 microfluidics system.
The reagents and buffers listed in the following table are generally applicable for developing and running an HTS screen on a human protein kinase using the Caliper HTS 250 system.
The following reagents were prepared using the previously described buffers.
A 2× Master Buffer solution was prepared by combining 200 mL of 1 M HEPES, pH 7.5, 2 mL of 10% Triton X-100, 20 mL of 10% BSA, and 778 mL of H2O.
A 2.5× Substrate Buffer solution was prepared by combining 177.408 mL of 2× Master Buffer, 0.887 mL of 1 mM peptide-X, and 176.521 mL of H2O.
A 1.55× Termination Buffer solution was prepared by combining 762.05 mL of 2× Master Buffer, 95.1 mL of 0.5 M EDTA, and 666.94 mL of H2O. […]
Assays to determine the kinase inhibitory activity of compounds of the present disclosure were performed using a Caliper HTS 250 microfluidics device, Greiner U-bottom assay plates, a Multidrop for transfer of reagents, and Biomek FX (AMNCBM03) software. […] The inhibition of the ATP-utilizing enzyme, such as a particular protein kinase, was determined by measuring the ratio of the peptide substrate to phosphorylated product for each well of the assay plate using the Caliper HTS 250 system. […]

DYRK2 = biological target: T2, DYRK2 (Homo sapiens, UniProt Q92630); type: biochemical
T2 sequence (Q92630 1-601): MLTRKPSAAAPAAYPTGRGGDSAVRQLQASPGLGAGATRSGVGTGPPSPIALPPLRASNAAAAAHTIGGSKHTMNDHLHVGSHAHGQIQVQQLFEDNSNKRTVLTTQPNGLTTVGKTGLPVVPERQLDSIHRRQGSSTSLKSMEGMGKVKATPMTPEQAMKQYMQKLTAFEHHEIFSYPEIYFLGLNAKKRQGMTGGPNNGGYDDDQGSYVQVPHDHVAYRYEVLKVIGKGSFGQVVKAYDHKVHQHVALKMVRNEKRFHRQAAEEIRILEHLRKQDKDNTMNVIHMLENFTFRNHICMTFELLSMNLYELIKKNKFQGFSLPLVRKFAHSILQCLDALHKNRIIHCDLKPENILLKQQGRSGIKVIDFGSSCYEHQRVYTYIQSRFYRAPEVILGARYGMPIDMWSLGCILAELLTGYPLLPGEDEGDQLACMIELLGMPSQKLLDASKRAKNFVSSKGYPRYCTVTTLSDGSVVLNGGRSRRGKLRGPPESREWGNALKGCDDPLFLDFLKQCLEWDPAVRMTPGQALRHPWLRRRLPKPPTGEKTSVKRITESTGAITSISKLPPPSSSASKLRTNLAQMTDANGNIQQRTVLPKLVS
Procedure, shortened: as §1

GSK-3-β = GSK-3-β (Homo sapiens, UniProt P49841); type: biochemical
Procedure, shortened: as §1

GSK3-α = GSK3-α (Homo sapiens, UniProt P49840); type: biochemical
Procedure, shortened: as §1

C-TAK1 = C-TAK1 (Homo sapiens, UniProt P27448); type: biochemical
Procedure, shortened: as §1

MSK1 = MSK1 (Homo sapiens, UniProt O75582); type: biochemical
Procedure, shortened: as §1

NEK2 = biological target: T3, NEK2 (Homo sapiens, UniProt P51955); type: biochemical
T3 sequence (P51955 1-445): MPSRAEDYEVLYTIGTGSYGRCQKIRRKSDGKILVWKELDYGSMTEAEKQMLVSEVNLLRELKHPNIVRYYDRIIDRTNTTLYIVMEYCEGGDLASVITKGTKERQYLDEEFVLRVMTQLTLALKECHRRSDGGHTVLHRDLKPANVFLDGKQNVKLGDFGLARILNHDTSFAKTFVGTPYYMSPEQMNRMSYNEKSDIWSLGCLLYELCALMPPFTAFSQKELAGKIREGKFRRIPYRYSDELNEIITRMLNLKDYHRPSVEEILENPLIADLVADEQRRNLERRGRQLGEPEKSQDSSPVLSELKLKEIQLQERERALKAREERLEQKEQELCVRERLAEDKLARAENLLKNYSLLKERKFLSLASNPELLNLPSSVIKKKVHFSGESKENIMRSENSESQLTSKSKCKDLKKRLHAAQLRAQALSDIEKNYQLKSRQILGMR
Procedure, shortened: as §1

CDK2/cyclin A = CDK2/cyclin A (Homo sapiens, UniProt P24941); type: biochemical
Procedure, shortened: as §1

CHEK2 = CHEK2 (Homo sapiens, UniProt O96017); type: biochemical
Procedure, shortened: as §1

ROCK2 = ROCK2 (Homo sapiens, UniProt O75116); type: biochemical
Procedure, shortened: as §1

CDK1/cyclin B = CDK1/cyclin B (Homo sapiens, UniProt P06493); type: biochemical
Procedure, shortened: as §1

KIT = KIT (Homo sapiens, UniProt P10721); type: biochemical
Procedure, shortened: as §1

SRC = SRC (Homo sapiens, UniProt P12931); type: biochemical
Procedure, shortened: as §1

SYK = SYK (Homo sapiens, UniProt P43405); type: biochemical
Procedure, shortened: as §1

CHEK2, sequence (O96017 whole entry): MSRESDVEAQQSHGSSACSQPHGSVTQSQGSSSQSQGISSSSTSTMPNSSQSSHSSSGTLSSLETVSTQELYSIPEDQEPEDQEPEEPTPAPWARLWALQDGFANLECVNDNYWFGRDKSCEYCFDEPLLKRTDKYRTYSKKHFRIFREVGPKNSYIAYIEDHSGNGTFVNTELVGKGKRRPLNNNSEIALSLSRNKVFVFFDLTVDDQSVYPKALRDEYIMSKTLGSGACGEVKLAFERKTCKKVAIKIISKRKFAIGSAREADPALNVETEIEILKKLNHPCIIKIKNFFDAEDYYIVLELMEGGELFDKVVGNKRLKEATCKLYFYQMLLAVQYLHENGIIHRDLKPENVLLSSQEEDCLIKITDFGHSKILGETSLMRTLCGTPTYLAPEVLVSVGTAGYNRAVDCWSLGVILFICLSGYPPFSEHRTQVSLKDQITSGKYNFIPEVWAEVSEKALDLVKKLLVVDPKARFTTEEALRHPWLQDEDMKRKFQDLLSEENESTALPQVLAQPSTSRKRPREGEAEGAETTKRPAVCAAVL
MAPKAPK2, sequence (P49137 whole entry): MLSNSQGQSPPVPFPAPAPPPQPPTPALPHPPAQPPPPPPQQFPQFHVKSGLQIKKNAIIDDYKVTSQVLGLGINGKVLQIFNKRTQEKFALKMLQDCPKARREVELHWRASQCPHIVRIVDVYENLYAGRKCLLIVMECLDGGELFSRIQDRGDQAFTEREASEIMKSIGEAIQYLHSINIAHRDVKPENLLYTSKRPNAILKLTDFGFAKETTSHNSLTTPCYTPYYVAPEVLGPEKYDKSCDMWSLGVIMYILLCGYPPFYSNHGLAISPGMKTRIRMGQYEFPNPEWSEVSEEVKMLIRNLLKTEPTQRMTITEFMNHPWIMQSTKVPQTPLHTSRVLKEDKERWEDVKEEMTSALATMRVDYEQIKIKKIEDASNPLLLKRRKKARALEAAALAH
C-TAK1, sequence (P27448 whole entry): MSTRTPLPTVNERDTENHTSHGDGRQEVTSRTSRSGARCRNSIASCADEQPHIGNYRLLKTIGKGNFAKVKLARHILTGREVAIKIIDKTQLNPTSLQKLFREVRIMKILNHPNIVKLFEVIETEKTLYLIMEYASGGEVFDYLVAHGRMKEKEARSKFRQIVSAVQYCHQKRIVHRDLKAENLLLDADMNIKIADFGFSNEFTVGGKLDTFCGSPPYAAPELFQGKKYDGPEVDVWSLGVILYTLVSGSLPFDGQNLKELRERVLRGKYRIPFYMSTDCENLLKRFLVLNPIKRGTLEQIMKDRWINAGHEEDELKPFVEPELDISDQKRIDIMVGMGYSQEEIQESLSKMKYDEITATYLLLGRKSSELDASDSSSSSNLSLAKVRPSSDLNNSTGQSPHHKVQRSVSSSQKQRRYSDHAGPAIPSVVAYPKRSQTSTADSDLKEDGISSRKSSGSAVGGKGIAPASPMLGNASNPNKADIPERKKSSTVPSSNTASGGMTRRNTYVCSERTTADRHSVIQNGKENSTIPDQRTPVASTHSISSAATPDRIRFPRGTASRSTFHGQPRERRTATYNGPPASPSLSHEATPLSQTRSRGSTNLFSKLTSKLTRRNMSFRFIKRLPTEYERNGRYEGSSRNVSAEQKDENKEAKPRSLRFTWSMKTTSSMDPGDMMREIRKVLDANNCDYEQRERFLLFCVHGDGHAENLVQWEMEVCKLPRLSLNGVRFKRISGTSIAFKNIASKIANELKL
GSK3-α, sequence (P49840 whole entry): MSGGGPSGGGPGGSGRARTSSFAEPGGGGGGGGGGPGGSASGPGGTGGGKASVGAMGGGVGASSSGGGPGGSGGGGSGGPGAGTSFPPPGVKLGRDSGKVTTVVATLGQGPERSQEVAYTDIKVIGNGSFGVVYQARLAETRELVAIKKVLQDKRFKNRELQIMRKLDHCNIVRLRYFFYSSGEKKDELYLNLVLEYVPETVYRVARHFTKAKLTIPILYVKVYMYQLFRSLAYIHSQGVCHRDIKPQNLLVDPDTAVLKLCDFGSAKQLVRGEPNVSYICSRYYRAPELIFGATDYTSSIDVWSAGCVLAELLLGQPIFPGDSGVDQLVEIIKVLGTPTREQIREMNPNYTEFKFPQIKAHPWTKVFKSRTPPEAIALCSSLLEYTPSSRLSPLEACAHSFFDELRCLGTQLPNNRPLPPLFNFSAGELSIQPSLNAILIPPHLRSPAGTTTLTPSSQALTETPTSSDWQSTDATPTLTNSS
ROCK2, sequence (O75116 whole entry): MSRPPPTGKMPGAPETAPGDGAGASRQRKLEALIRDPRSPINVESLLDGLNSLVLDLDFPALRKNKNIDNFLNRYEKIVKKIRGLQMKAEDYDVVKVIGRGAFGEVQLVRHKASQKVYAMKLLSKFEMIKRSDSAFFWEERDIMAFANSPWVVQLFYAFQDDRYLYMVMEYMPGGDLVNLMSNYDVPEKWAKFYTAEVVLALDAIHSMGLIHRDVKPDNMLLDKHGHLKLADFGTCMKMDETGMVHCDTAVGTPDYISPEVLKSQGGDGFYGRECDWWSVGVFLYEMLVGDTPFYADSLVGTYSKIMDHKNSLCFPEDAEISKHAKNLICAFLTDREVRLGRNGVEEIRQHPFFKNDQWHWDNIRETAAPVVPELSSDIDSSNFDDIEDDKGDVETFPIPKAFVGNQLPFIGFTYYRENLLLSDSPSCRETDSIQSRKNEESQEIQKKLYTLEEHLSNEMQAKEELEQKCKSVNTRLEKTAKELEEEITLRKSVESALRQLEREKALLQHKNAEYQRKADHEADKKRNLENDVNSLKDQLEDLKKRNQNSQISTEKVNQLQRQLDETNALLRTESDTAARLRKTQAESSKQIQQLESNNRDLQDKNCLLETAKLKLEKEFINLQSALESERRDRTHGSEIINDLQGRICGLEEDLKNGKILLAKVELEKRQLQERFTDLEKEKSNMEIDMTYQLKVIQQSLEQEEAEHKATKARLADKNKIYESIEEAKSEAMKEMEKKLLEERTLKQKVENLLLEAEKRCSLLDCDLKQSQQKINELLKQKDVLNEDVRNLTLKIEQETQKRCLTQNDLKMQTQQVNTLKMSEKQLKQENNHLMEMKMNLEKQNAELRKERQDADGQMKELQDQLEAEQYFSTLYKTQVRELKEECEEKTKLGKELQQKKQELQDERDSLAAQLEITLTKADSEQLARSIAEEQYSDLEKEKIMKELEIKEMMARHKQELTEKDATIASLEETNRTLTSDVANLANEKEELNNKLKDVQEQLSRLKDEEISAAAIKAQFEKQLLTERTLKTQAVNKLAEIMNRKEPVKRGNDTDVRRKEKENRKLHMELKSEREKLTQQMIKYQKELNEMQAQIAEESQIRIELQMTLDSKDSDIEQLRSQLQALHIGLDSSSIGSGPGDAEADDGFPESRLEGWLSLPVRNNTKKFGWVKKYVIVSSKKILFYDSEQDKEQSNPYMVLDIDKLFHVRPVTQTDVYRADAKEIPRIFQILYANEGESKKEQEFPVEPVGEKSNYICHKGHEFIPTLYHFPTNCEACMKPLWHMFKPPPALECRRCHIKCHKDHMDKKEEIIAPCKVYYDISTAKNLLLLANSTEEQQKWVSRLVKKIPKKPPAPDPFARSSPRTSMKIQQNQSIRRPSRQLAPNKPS
SRC, sequence (P12931 whole entry): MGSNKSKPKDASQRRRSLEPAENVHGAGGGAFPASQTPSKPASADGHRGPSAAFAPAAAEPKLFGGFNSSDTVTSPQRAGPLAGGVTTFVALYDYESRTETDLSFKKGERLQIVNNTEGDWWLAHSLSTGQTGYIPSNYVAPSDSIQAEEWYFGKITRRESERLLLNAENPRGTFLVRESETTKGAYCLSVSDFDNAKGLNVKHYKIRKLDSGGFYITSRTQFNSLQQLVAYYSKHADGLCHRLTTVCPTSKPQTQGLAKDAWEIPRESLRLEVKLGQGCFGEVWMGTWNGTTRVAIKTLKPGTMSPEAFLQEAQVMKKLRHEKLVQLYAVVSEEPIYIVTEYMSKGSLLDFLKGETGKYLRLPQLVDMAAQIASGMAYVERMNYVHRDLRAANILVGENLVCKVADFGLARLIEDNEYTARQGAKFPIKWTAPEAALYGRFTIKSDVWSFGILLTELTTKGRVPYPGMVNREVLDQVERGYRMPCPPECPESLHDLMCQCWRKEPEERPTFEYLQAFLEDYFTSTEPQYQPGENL
GSK-3-β, sequence (P49841 whole entry): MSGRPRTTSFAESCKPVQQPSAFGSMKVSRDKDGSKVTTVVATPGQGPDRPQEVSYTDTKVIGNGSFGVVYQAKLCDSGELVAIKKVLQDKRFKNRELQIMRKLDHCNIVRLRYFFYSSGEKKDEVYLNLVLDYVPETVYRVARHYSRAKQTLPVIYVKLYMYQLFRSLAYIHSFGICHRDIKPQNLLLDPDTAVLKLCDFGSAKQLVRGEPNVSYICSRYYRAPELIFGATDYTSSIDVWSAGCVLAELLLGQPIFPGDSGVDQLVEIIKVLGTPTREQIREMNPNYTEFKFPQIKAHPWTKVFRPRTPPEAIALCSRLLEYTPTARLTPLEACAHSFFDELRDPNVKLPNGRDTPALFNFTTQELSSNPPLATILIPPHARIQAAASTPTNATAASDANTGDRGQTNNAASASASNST

SMILES | Activity (MAPKAPK2) | Activity (PRAK) | Activity (C-TAK1) | Activity (NEK2) | Activity (CDK2/cyclin A) | Activity (CHEK2) | also measured
CN1CCN(c2ccc(Nc3ccnc4ccc(-c5cccc(C(=O)O)c5)cc34)cc2)CC1 [3-(4-(4-(4-methylpiperazin-1-yl)phenylamino)quinolin-6-yl)benzoic acid] | MAPKAPK2 | PRAK |  |  |  |  | Activity (CK2): CK2
CN1CCN(c2ccc(Nc3ccnc4ccc(-c5ccoc5)cc34)cc2)CC1 [6-(furan-3-yl)-N-(4-(4-methylpiperazin-1-yl)phenyl)quinolin-4-amine] | MAPKAPK2 |  |  |  |  |  | Activity (DYRK2): DYRK2; Activity (GSK-3-β): GSK-3-β; Activity (GSK3-α): GSK3-α
CN1CCN(c2ccc(Nc3ccnc4ccc(-c5ccc(F)c(Cl)c5)cc34)cc2)CC1 [6-(3-chloro-4-fluorophenyl)-N-(4-(4-methylpiperazin-1-yl)phenyl)quinolin-4-amine] | MAPKAPK2 | PRAK | C-TAK1 | NEK2 |  |  | Activity (MSK1): MSK1
CN1CCN(c2ccc(Nc3ccnc4ccc(-c5ccccc5C(F)(F)F)cc34)cc2)CC1 [N-(4-(4-methylpiperazin-1-yl)phenyl)-6-(2-(trifluoromethyl)phenyl)quinolin-4-amine] | MAPKAPK2 | PRAK |  | NEK2 |  |  | Activity (CK2): CK2
CN1CCN(c2ccc(Nc3ccnc4ccc(-c5ccc(Cl)c(Cl)c5)cc34)cc2)CC1 [6-(3,4-dichlorophenyl)-N-(4-(4-methylpiperazin-1-yl)phenyl)quinolin-4-amine] | MAPKAPK2 | PRAK | C-TAK1 | NEK2 | CDK2/cyclin A | CHEK2 | 
CN1CCN(c2ccc(Nc3ccnc4ccc(-c5ccc(C(N)=O)cc5)cc34)cc2)CC1 [4-(4-(4-(4-methylpiperazin-1-yl)phenylamino)quinolin-6-yl)benzamide] | MAPKAPK2 | PRAK |  | NEK2 |  |  | Activity (DYRK2): DYRK2; Activity (ROCK2): ROCK2
CNC1CCN(c2ccc(Nc3ccnc4ccc(-c5ccc(C#N)cc5)cc34)cc2)C1 (centres unmarked) [4-(4-(4-(3-(methylamino)pyrrolidin-1-yl)phenylamino)quinolin-6-yl)benzonitrile] |  | PRAK |  |  |  |  | Activity (CDK1/cyclin B): CDK1/cyclin B; Activity (KIT): KIT
CN1CCN(c2ccc(Nc3ccnc4ccc(-c5cccc(OCc6ccccc6)c5)cc34)cc2)CC1 [6-(3-(benzyloxy)phenyl)-N-(4-(4-methylpiperazin-1-yl)phenyl)quinolin-4-amine] | MAPKAPK2 | PRAK | C-TAK1 |  | CDK2/cyclin A | CHEK2 | 
CN1CCN(c2ccc(Nc3ccnc4ccc(-c5ccc(OCc6ccccc6)c(F)c5)cc34)cc2)CC1 [6-(4-(benzyloxy)-3-fluorophenyl)-N-(4-(4-methylpiperazin-1-yl)phenyl)quinolin-4-amine] | MAPKAPK2 |  | C-TAK1 |  |  |  | Activity (SRC): SRC; Activity (SYK): SYK
CN1CCN(c2ccc(Nc3ccnc4ccc(-c5cccs5)cc34)cc2)CC1 [N-(4-(4-methylpiperazin-1-yl)phenyl)-6-(thiophen-2-yl)quinolin-4-amine] | MAPKAPK2 | PRAK |  |  | CDK2/cyclin A | CHEK2 | Activity (GSK3-α): GSK3-α
